The values that follow come from PubChem BioAssay AID180 (DTP/NCI, 2004).

For the assay, the system named is BDF1 mice, Adenocarcinoma 755 s.c., tumor weight T/C. Description: NCI In Vivo Anticancer Drug Screen. Data for tumor model Adenocarcinoma 755 (subcutaneous) in B6D2F1 (BDF1) mice. As to conditions: endpoint: mean tumor weight, schedule: Q01DX011 (ip), higher = larger tumour. How it is done:
The antitumor activity of compounds was measured in mice bearing transplantable tumors. Survival or tumor size were measured and the results are expressed as the measurement made in the treated group (T) divided by the measurement made in the vehicle treated control group (C). The tumor model used in this assay is Adenocarcinoma 755 (subcutaneous) in B6D2F1 (BDF1) mice

Setting [1] is: dose: 15.0 mg/kg/injection, vehicle: methylcellulose (MC).
[2] abbreviates: dose: 31.0 mg/kg/injection, vehicle: methylcellulose (MC).
[3] abbreviates: dose: 62.0 mg/kg/injection, vehicle: methylcellulose (MC).
Setting [4] is: dose: 125.0 mg/kg/injection, vehicle: methylcellulose (MC).
The mark [5] stands for this setting: dose: 250.0 mg/kg/injection, vehicle: methylcellulose (MC).
Setting [6] is: dose: 1.1 mg/kg/injection, vehicle: carboxymethylcellulose (CMC).
The mark [7] stands for this setting: dose: 50.0 mg/kg/injection, vehicle: methylcellulose (MC).

“And” between values parts separate entries of the source, which are not always exact repeats. Equal entries are not always repeated.

Take `O=S(=O)(Nc1ccccc1)c1ccc(C2CC3(Cl)C(Cl)=C(Cl)C2(Cl)C3(Cl)Cl)cc1` (stereo not drawn): the T/C (dose: 28.12 mg/kg/injection, vehicle: methylcellulose (MC)) is 90 % of control and 109 % of control; the T/C (dose: 112.5 mg/kg/injection, vehicle: methylcellulose (MC)) is 95 % of control and 107 % of control; the T/C (dose: 225.0 mg/kg/injection, vehicle: methylcellulose (MC)) was 69 % of control.
For the compound `CCCCNc1nc(SCc2ccc(Cl)cc2Cl)ncc1C`, the T/C was 78 % of control under setting [1]; 91 % of control under setting [2]; 84 % of control under setting [3]; 72 % of control under setting [4]; 60 % of control under setting [5].
As for `Nc1nc(SCC(=O)c2ccc(Cl)cc2)c2ncn(C3OC(CO)C(O)C3O)c2n1` (stereo not drawn), the T/C was 62 % of control (dose: 37.5 mg/kg/injection, vehicle: methylcellulose (MC)); 44 % of control (dose: 75.0 mg/kg/injection, vehicle: methylcellulose (MC)); 31 % of control (dose: 150.0 mg/kg/injection, vehicle: methylcellulose (MC)); 24 % of control (dose: 300.0 mg/kg/injection, vehicle: methylcellulose (MC)).
Take `NS(=O)(=O)c1nc(=S)c2[nH]cnc2[nH]1`: the T/C reads like this: (dose: 25.0 mg/kg/injection, vehicle: carboxymethylcellulose (CMC)) 108 % of control; (dose: 75.0 mg/kg/injection, vehicle: carboxymethylcellulose (CMC)) 117 % of control; (dose: 225.0 mg/kg/injection, vehicle: carboxymethylcellulose (CMC)) 79 % of control.
As to `CSc1nc(Cl)c2cc[nH]c2n1`, the T/C is, setting by setting: (dose: 30.0 mg/kg/injection, vehicle: carboxymethylcellulose (CMC)) 89 % of control; (dose: 120.0 mg/kg/injection, vehicle: carboxymethylcellulose (CMC)) 72 % of control; (dose: 240.0 mg/kg/injection, vehicle: carboxymethylcellulose (CMC)) 79 % of control.
Consider `COc1cc([C@@H]2c3cc4c(cc3[C@H](O)[C@H]3COC(=O)[C@H]23)OCO4)cc(OC)c1OC`, for which the T/C by setting is: (dose: 0.13 mg/kg/injection, vehicle: carboxymethylcellulose (CMC)) 102 % of control; (dose: 0.27 mg/kg/injection, vehicle: carboxymethylcellulose (CMC)) 60 % of control and 80 % of control; (dose: 0.54 mg/kg/injection, vehicle: carboxymethylcellulose (CMC)) 109 % of control; (dose: 0.55 mg/kg/injection, vehicle: carboxymethylcellulose (CMC)) 76 % of control; (dose: 1.08 mg/kg/injection, vehicle: carboxymethylcellulose (CMC)) 120 % of control; under setting [6], 117 % of control.
Turning to `CCOC(=O)CCCc1ccc(N=NN(C)C(C)CC)cc1` (stereo not drawn), the T/C is, setting by setting: (dose: 62.0 mg/kg/injection, vehicle: carboxymethylcellulose (CMC)) 64 % of control; (dose: 125.0 mg/kg/injection, vehicle: carboxymethylcellulose (CMC)) 71 % of control; (dose: 250.0 mg/kg/injection, vehicle: carboxymethylcellulose (CMC)) 14 % of control.
In the case of `CC1CN(Cc2ccccc2)C(=S)N(c2ccccc2)C1=O` (stereo not drawn), the T/C by setting is: under setting [1], 87 % of control; under setting [2], 74 % of control; under setting [3], 96 % of control; under setting [4], 97 % of control; under setting [5], 82 % of control.
As for `N=[N+]=CC(=O)OCC(N)C(=O)O` (stereo not drawn), the T/C is 124 % of control (dose: 0.9 mg/kg/injection, vehicle: carboxymethylcellulose (CMC)); 111 % of control (dose: 1.8 mg/kg/injection, vehicle: carboxymethylcellulose (CMC)); 72 % of control (dose: 2.31 mg/kg/injection, vehicle: carboxymethylcellulose (CMC)); 90 % of control and 78 % of control (dose: 3.6 mg/kg/injection, vehicle: carboxymethylcellulose (CMC)); 61 % of control (dose: 4.63 mg/kg/injection, vehicle: carboxymethylcellulose (CMC)); 62 % of control and 74 % of control (dose: 4.8 mg/kg/injection, vehicle: carboxymethylcellulose (CMC)). The T/C reads like this: (dose: 7.2 mg/kg/injection, vehicle: carboxymethylcellulose (CMC)) 28 % of control and 40 % of control and 51 % of control; (dose: 7.4 mg/kg/injection, vehicle: carboxymethylcellulose (CMC)) 50 % of control; (dose: 9.25 mg/kg/injection, vehicle: carboxymethylcellulose (CMC)) 50 % of control and 66 % of control; (dose: 12.33 mg/kg/injection, vehicle: carboxymethylcellulose (CMC)) 23 % of control; (dose: 18.5 mg/kg/injection, vehicle: carboxymethylcellulose (CMC)) 10 % of control.
`CCCCn1cnc2c(SCc3ccc(F)cc3)nc(N)nc21`: the T/C was 59 % of control (dose: 3.1 mg/kg/injection, vehicle: methylcellulose (MC)); 47 % of control (dose: 6.25 mg/kg/injection, vehicle: methylcellulose (MC)); 22 % of control (dose: 12.5 mg/kg/injection, vehicle: methylcellulose (MC)); 10 % of control and 14 % of control (dose: 25.0 mg/kg/injection, vehicle: methylcellulose (MC)); 2 % of control under setting [7].
Consider `CN(C)c1ccc(/C=C/c2ccnc3ccccc23)cc1`, for which the T/C is 117 % of control (dose: 4.0 mg/kg/injection, vehicle: water); 105 % of control (dose: 8.0 mg/kg/injection, vehicle: water); 72 % of control (dose: 16.0 mg/kg/injection, vehicle: water).
As to `CCOC(=O)C(N)Cc1ccc(N(CCCl)CCCl)cc1` (stereo not drawn), the T/C (dose: 0.5 mg/kg/injection, vehicle: carboxymethylcellulose (CMC)) is 92 % of control; the T/C (dose: 0.5 mg/kg/injection, vehicle: saline) is 82 % of control; the T/C under setting [6] was 77 % of control; the T/C (dose: 1.1 mg/kg/injection, vehicle: saline) was 40 % of control; the T/C (dose: 2.2 mg/kg/injection, vehicle: carboxymethylcellulose (CMC)) is 91 % of control; the T/C (dose: 2.2 mg/kg/injection, vehicle: saline) is 9 % of control. The T/C was 78 % of control (dose: 4.5 mg/kg/injection, vehicle: carboxymethylcellulose (CMC)); 1 % of control (dose: 4.5 mg/kg/injection, vehicle: saline); 69 % of control (dose: 9.0 mg/kg/injection, vehicle: carboxymethylcellulose (CMC)).
Take `O=C(CCBr)NCCNC(=O)CCBr`: the T/C under setting [7] is 15 % of control and the T/C (dose: 100.0 mg/kg/injection, vehicle: methylcellulose (MC)) is 3 % of control.
Regarding `O=[N+]([O-])c1ccc(-n2cnc3c(=S)nc[nH]c32)o1`, the T/C runs as follows: (dose: 0.2 mg/kg/injection, vehicle: carboxymethylcellulose (CMC)) 105 % of control; (dose: 0.4 mg/kg/injection, vehicle: carboxymethylcellulose (CMC)) 92 % of control; (dose: 0.8 mg/kg/injection, vehicle: carboxymethylcellulose (CMC)) 86 % of control; (dose: 1.6 mg/kg/injection, vehicle: carboxymethylcellulose (CMC)) 29 % of control and 44 % of control; (dose: 3.2 mg/kg/injection, vehicle: carboxymethylcellulose (CMC)) 32 % of control; (dose: 6.3 mg/kg/injection, vehicle: carboxymethylcellulose (CMC)) 1 % of control.
